Article PMC11277489, “Novel Piperazine Derivatives of Vindoline as Anticancer Agents” (International Journal of Molecular Sciences, 2024)

Assays:
NCI-H522 = test: NCI60 one-dose screen (10 μM), Non-small Cell Lung Cancer; assay type: cell-based; conditions: Homo sapiens; 10 μM; NCI-H522, Non-small Cell Lung Cancer; read-out: Growth percent rate
786–0 = test: NCI60 one-dose screen (10 μM), Renal Cancer; assay type: cell-based; conditions: Homo sapiens; 10 μM; 786-0, Renal Cancer; read-out: Growth percent rate
SK-MEL-2 = test: NCI60 one-dose screen (10 μM), Melanoma; assay type: cell-based; conditions: Homo sapiens; 10 μM; SK-MEL-2, Melanoma; read-out: Growth percent rate
SK-MEL-28 = test: NCI60 one-dose screen (10 μM), Melanoma; assay type: cell-based; conditions: Homo sapiens; 10 μM; SK-MEL-28, Melanoma; read-out: Growth percent rate
TK-10 = test: NCI60 one-dose screen (10 μM), Renal Cancer; assay type: cell-based; conditions: Homo sapiens; 10 μM; TK-10, Renal Cancer; read-out: Growth percent rate
OVCAR-8 = test: NCI60 one-dose screen (10 μM), Ovarian Cancer; assay type: cell-based; conditions: Homo sapiens; 10 μM; OVCAR-8, Ovarian Cancer; read-out: Growth percent rate
SF-268 = test: NCI60 one-dose screen (10 μM), CNS Cancer; assay type: cell-based; conditions: Homo sapiens; 10 μM; SF-268, CNS Cancer; read-out: Growth percent rate
LOX IMVI = test: NCI60 one-dose screen (10 μM), Melanoma; assay type: cell-based, human
K-562 = test: NCI60 one-dose screen (10 μM), Leukemia; assay type: cell-based; conditions: Homo sapiens, K562; 10 μM; K-562, Leukemia; read-out: Growth percent rate
HS 578T = test: NCI60 one-dose screen (10 μM), Breast Cancer; assay type: cell-based; conditions: Homo sapiens; 10 μM; HS 578T, Breast Cancer; read-out: Growth percent rate
UACC-257 = test: NCI60 one-dose screen (10 μM), Melanoma; assay type: cell-based; conditions: Homo sapiens; 10 μM; UACC-257, Melanoma; read-out: Growth percent rate
MOLT-4 = test: NCI60 one-dose screen (10 μM), Leukemia; assay type: cell-based, human; conditions: Homo sapiens; 10 μM; MOLT-4, Leukemia; read-out: Growth percent rate
NCI-H460 = test: NCI60 one-dose screen (10 μM), Non-small Cell Lung Cancer; assay type: cell-based; conditions: Homo sapiens; 10 μM; NCI-H460, Non-small Cell Lung Cancer; read-out: Growth percent rate
SK-MEL-5 = test: NCI60 one-dose screen (10 μM), Melanoma; assay type: cell-based, human
KM12 = test: NCI60 one-dose screen (10 μM), Colon Cancer; assay type: cell-based, human
SNB-75 = test: NCI60 one-dose screen (10 μM), CNS Cancer; assay type: cell-based, human
DU-145 = test: NCI60 one-dose screen (10 μM), Prostate Cancer; assay type: cell-based; conditions: Homo sapiens; 10 μM; DU-145, Prostate Cancer; read-out: Growth percent rate
OVCAR-3 = test: NCI60 one-dose screen (10 μM), Ovarian Cancer; assay type: cell-based; conditions: Homo sapiens; 10 μM; OVCAR-3, Ovarian Cancer; read-out: Growth percent rate
ACHN = test: NCI60 one-dose screen (10 μM), Renal Cancer; assay type: cell-based; conditions: Homo sapiens, 10 μM, Renal Cancer, read-out: Growth percent rate
HCT-116 = test: NCI60 one-dose screen (10 μM), Colon Cancer; assay type: cell-based; conditions: Homo sapiens; 10 μM; HCT-116, Colon Cancer; read-out: Growth percent rate
IGROV1 = test: NCI60 one-dose screen (10 μM), Ovarian Cancer; assay type: cell-based; conditions: Homo sapiens, IGROV-1; 10 μM; IGROV1, Ovarian Cancer; read-out: Growth percent rate
CCRF-CEM = test: NCI60 one-dose screen (10 μM), Leukemia; assay type: cell-based; conditions: Homo sapiens, 10 μM, Leukemia, read-out: Growth percent rate
HOP-62 = test: NCI60 one-dose screen (10 μM), Non-small Cell Lung Cancer; assay type: cell-based; conditions: Homo sapiens; 10 μM; HOP-62, Non-small Cell Lung Cancer; read-out: Growth percent rate
U251 = test: NCI60 one-dose screen (10 μM), CNS Cancer; assay type: cell-based; conditions: Homo sapiens, U-251; 10 μM; U251, CNS Cancer; read-out: Growth percent rate
SF-539 = test: NCI60 one-dose screen (10 μM), CNS Cancer; assay type: cell-based, human
SW-620 = test: NCI60 one-dose screen (10 μM), Colon Cancer; assay type: cell-based; conditions: Homo sapiens; 10 μM; SW-620, Colon Cancer; read-out: Growth percent rate
HCT-15 = test: NCI60 one-dose screen (10 μM), Colon Cancer; assay type: cell-based; conditions: Homo sapiens; 10 μM; HCT-15, Colon Cancer; read-out: Growth percent rate
SF-295 = test: NCI60 one-dose screen (10 μM), CNS Cancer; assay type: cell-based; conditions: Homo sapiens; 10 μM; SF-295, CNS Cancer; read-out: Growth percent rate
COLO 205 = test: NCI60 one-dose screen (10 μM), Colon Cancer; assay type: cell-based, human; conditions: Homo sapiens; 10 μM; COLO 205, Colon Cancer; read-out: Growth percent rate
HL-60(TB) = test: NCI60 one-dose screen (10 μM), Leukemia; assay type: cell-based; conditions: Homo sapiens; 10 μM; HL-60(TB), Leukemia; read-out: Growth percent rate
SNB-19 = test: NCI60 one-dose screen (10 μM), CNS Cancer; assay type: cell-based; conditions: Homo sapiens; 10 μM; SNB-19, CNS Cancer; read-out: Growth percent rate
A549/ATCC = test: NCI60 one-dose screen (10 μM), Non-small Cell Lung Cancer; assay type: cell-based; conditions: Homo sapiens; 10 μM; A549/ATCC, Non-small Cell Lung Cancer; read-out: Growth percent rate
[1] = test system: 60 human tumor cell lines (NCI60); test: NCI60 one-dose screen (10 μM), whole panel; assay type: cell-based
MCF7 = test: NCI60 one-dose screen (10 μM), Breast Cancer; assay type: cell-based; conditions: Homo sapiens; 10 μM; MCF7, Breast Cancer; read-out: Growth percent rate
HT29 = test: NCI60 one-dose screen (10 μM), Colon Cancer; assay type: cell-based; conditions: Homo sapiens, HT-29; 10 μM; HT29, Colon Cancer; read-out: Growth percent rate
SN12C = test: NCI60 one-dose screen (10 μM), Renal Cancer; assay type: cell-based; conditions: Homo sapiens, 10 μM, Renal Cancer, read-out: Growth percent rate
A498 = test: NCI60 one-dose screen (10 μM), Renal Cancer; assay type: cell-based; conditions: Homo sapiens; 10 μM; A498, Renal Cancer; read-out: Growth percent rate
M14 = test: NCI60 one-dose screen (10 μM), Melanoma; assay type: cell-based; conditions: Homo sapiens; 10 μM; M14, Melanoma; read-out: Growth percent rate
NCI-H322M = test: NCI60 one-dose screen (10 μM), Non-small Cell Lung Cancer; assay type: cell-based; conditions: Homo sapiens, 10 μM, Non-small Cell Lung Cancer, read-out: Growth percent rate
RPMI-8226 = test: NCI60 one-dose screen (10 μM), Leukemia; assay type: cell-based; conditions: Homo sapiens; 10 μM; RPMI-8226, Leukemia; read-out: Growth percent rate
MALME-3M = test: NCI60 one-dose screen (10 μM), Melanoma; assay type: cell-based; conditions: Homo sapiens; 10 μM; MALME-3M, Melanoma; read-out: Growth percent rate
RXF 393 = test: NCI60 one-dose screen (10 μM), Renal Cancer; assay type: cell-based, human; conditions: Homo sapiens; 10 μM; RXF 393, Renal Cancer; read-out: Growth percent rate

## CCC12C=CCN3CCC4(c5cc(NC(=O)CN6CCN(c7ccc(C(F)(F)F)cc7)CC6)c(OC)cc5N(C)C4C(O)(C(=O)OC)C1OC(C)=O)C32 (stereo not drawn) [Compound 17]
NCI-H522
  activity at 10 µM: -24.4%
786–0
  activity at 10 µM: 24.8%
SK-MEL-2
  activity at 10 µM: -66.2%
SK-MEL-28
  activity at 10 µM: -67.6%
TK-10
  activity at 10 µM: 33.4%
OVCAR-8
  activity at 10 µM: 26.3%
SF-268
  activity at 10 µM: -6.14%
LOX IMVI; 10 μM one-dose, LOX-IMVI melanoma, negative = lethality
  growth percent rate: −95.37%
LOX IMVI; Homo sapiens, 10 μM, LOX IMVI, Melanoma, read-out: Growth percent rate
  activity at 10 µM: -95.4%
K-562
  activity at 10 µM: 11.4%
HS 578T
  activity at 10 µM: -3.36%
UACC-257
  activity at 10 µM: -65.3%
MOLT-4
  activity at 10 µM: 8.66%
NCI-H460
  activity at 10 µM: 9.27%
SK-MEL-5; 10 μM one-dose, SK-MEL-5 melanoma, negative = lethality
  growth percent rate: −98.17%
SK-MEL-5; Homo sapiens, 10 μM, SK-MEL-5, Melanoma, read-out: Growth percent rate
  activity at 10 µM: -98.2%
KM12; 10 μM one-dose, KM12 colon cancer, negative = lethality
  growth percent rate: −84.40%
KM12; Homo sapiens, 10 μM, KM12, Colon Cancer, read-out: Growth percent rate
  activity at 10 µM: -84.4%
SNB-75; 10 μM one-dose, SNB-75 CNS cancer, negative = lethality
  growth percent rate: < −80%
SNB-75; Homo sapiens, 10 μM, SNB-75, CNS Cancer, read-out: Growth percent rate
  activity at 10 µM: -87.6%
DU-145
  activity at 10 µM: 24.1%
OVCAR-3
  activity at 10 µM: -48%
ACHN
  activity at 10 µM: 3.15%
HCT-116
  activity at 10 µM: 0.31%
IGROV1
  activity at 10 µM: 12.7%
CCRF-CEM
  activity at 10 µM: -7.07%
HOP-62
  activity at 10 µM: -38.8%
U251
  activity at 10 µM: 7.24%
SF-539; 10 μM one-dose, SF-539 CNS cancer, negative = lethality
  growth percent rate: < −80%
SF-539; Homo sapiens, 10 μM, SF-539, CNS Cancer, read-out: Growth percent rate
  activity at 10 µM: -83.4%
SW-620
  activity at 10 µM: 1.45%
HCT-15
  activity at 10 µM: -56.5%
SF-295
  activity at 10 µM: -70.2%
COLO 205
  activity at 10 µM: -74.5%
HL-60(TB)
  activity at 10 µM: 1.98%
SNB-19
  activity at 10 µM: 18.4%
A549/ATCC
  activity at 10 µM: 20.3%
[1]; 10 μM one-dose, NCI60
  antiproliferative effect (in words): highly effective in several types of cancer
[1]; 10 μM, mean over 60 human cancer cell lines, read-out: Growth percent rate, Mean
  activity at 10 µM: -24.7%
MCF7
  activity at 10 µM: 0.95%
HT29
  activity at 10 µM: -68.8%
SN12C
  activity at 10 µM: -17%
A498
  activity at 10 µM: -9.05%
M14
  activity at 10 µM: -31.1%
NCI-H322M
  activity at 10 µM: 39.1%
RPMI-8226
  activity at 10 µM: -14.1%
MALME-3M
  activity at 10 µM: -89.5%
RXF 393
  activity at 10 µM: -36.5%
